Tests used:
Test in all cases: relative viability (nuclei count vs DMSO), 5 days (fraction); higher = more cells survive
Selumetinib + Lapatinib = compound: Cn1cnc2c(F)c(Nc3ccc(Br)cc3Cl)c(C(=O)NOCCO)cc21 [Selumetinib] + CS(=O)(=O)CCNCc1ccc(-c2ccc3ncnc(Nc4ccc(OCc5cccc(F)c5)c(Cl)c4)c3c2)o1 [Lapatinib] (partner 2 µM)
Outline: (§1)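 The day after seeding in 1536-well plates, lung cancer cell lines were treated by pin tool with a single drug, or with a fixed anchor-drug dose together with five library-drug doses (not always all listed) in √10 steps. After 5 days, a combined fix-and-stain solution (final 0.05% Triton X-100, 1% formaldehyde, 1 ug/ml Hoechst) was added. Nuclei counted on 4× images gave relative viability as treated counts over vehicle counts, reported as the median of duplicate plates.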

Venetoclax + Phenformin = compound: CC1(C)CCC(CN2CCN(c3ccc(C(=O)NS(=O)(=O)c4ccc(NCC5CCOCC5)c([N+](=O)[O-])c4)c(Oc4cnc5[nH]ccc5c4)c3)CC2)=C(c2ccc(Cl)cc2)C1 [Venetoclax] + N=C(N)NC(=N)NCCc1ccccc1 [Phenformin] (partner 250 µM)
Outline: as §1

Venetoclax + Vorinostat = compound: CC1(C)CCC(CN2CCN(c3ccc(C(=O)NS(=O)(=O)c4ccc(NCC5CCOCC5)c([N+](=O)[O-])c4)c(Oc4cnc5[nH]ccc5c4)c3)CC2)=C(c2ccc(Cl)cc2)C1 [Venetoclax] + O=C(CCCCCCC(=O)Nc1ccccc1)NO [Vorinostat] (partner 1 µM)
Outline: as §1

Selumetinib + Vorinostat = compound: Cn1cnc2c(F)c(Nc3ccc(Br)cc3Cl)c(C(=O)NOCCO)cc21 [Selumetinib] + O=C(CCCCCCC(=O)Nc1ccccc1)NO [Vorinostat] (partner 1 µM)
Outline: as §1

| Cell Line | relative viability (Selumetinib + Lapatinib; first compound 0.02 µM) | relative viability (Selumetinib + Lapatinib; first compound 0.06325 µM) | relative viability (Selumetinib + Lapatinib; first compound 0.2 µM) | relative viability (Selumetinib + Lapatinib; first compound 0.6325 µM) | relative viability (Venetoclax + Phenformin; first compound 0.01 µM) | relative viability (Venetoclax + Phenformin; first compound 0.03162 µM) | relative viability (Venetoclax + Phenformin; first compound 0.1 µM) | relative viability (Venetoclax + Phenformin; first compound 0.3162 µM) | relative viability (Venetoclax + Phenformin; first compound 1 µM) | relative viability (Venetoclax + Vorinostat; first compound 0.01 µM) | relative viability (Venetoclax + Vorinostat; first compound 0.03162 µM) | relative viability (Venetoclax + Vorinostat; first compound 0.1 µM) | relative viability (Venetoclax + Vorinostat; first compound 0.3162 µM) | relative viability (Venetoclax + Vorinostat; first compound 1 µM) | relative viability (Selumetinib + Vorinostat; first compound 0.02 µM) | relative viability (Selumetinib + Vorinostat; first compound 0.06325 µM) | relative viability (Selumetinib + Vorinostat; first compound 0.2 µM) | relative viability (Selumetinib + Vorinostat; first compound 0.6325 µM) |
| --- | --- | --- | --- | --- | --- | --- | --- | --- | --- | --- | --- | --- | --- | --- | --- | --- | --- | --- |
| NCI-H2009 | 0.786 | 0.567 | 0.596 | 0.375 | 0.48 | 0.459 | 0.439 | 0.446 | 0.337 | 0.746 | 0.729 | 0.758 | 0.714 | 0.681 | 0.675 | 0.717 | 0.65 | 0.377 |
| CAL-12T | 0.542 | 0.425 | 0.523 | 0.521 | 0.543 | 0.575 | 0.567 | 0.555 | 0.539 | 0.684 | 0.782 | 0.683 | 0.865 | 0.56 | 0.81 | 0.724 | 0.569 | 0.507 |
| NCI-H1623 |  |  |  |  | 0.556 | 0.607 | 0.597 | 0.64 | 0.63 |  |  |  |  |  |  |  |  |  |
| HCC-78 | 0.695 | 0.64 | 0.657 | 0.675 | 0.782 | 0.776 | 0.699 | 0.671 | 0.606 | 0.448 | 0.446 | 0.373 | 0.438 | 0.424 | 0.433 | 0.358 | 0.413 | 0.482 |
| EKVX | 0.171 | 0.263 | 0.241 | 0.168 | 0.229 | 0.236 | 0.223 | 0.239 | 0.233 | 0.618 | 0.838 | 0.602 | 0.771 | 0.592 | 0.557 | 0.531 | 0.446 | 0.384 |
| NCI-H1703 | 1.19 | 1.17 | 1.17 | 0.994 |  |  |  |  |  |  |  |  |  |  |  |  |  |  |
| NCI-H1944 | 0.812 | 0.666 | 0.63 | 0.634 | 0.216 | 0.197 | 0.183 | 0.212 | 0.205 | 0.606 | 0.586 | 0.442 | 0.608 | 0.498 | 0.562 | 0.448 | 0.441 | 0.491 |
| NCI-H1755 | 0.971 | 0.953 | 0.91 | 0.998 | 0.645 | 0.616 | 0.573 | 0.629 | 0.555 | 0.751 | 0.801 | 0.774 | 0.739 | 0.741 | 0.821 | 0.68 | 0.726 | 0.852 |
| Calu-6 | 1.05 | 0.853 | 0.693 | 0.439 |  |  |  |  |  |  |  |  |  |  |  |  |  |  |
| EBC-1 | 0.203 | 0.201 | 0.239 | 0.199 |  |  |  |  |  |  |  |  |  |  |  |  |  |  |
| EPLC-272H | 0.801 | 0.722 | 0.558 | 0.643 | 0.353 | 0.312 | 0.286 | 0.321 | 0.295 | 0.495 | 0.422 | 0.579 | 0.469 | 0.494 | 0.312 | 0.343 | 0.3 | 0.256 |
| A-427 | 0.98 | 0.914 | 1.09 | 1.1 | 0.292 | 0.322 | 0.31 | 0.348 | 0.259 | 0.834 | 0.863 | 0.857 | 0.849 | 0.879 | 0.93 | 0.94 | 0.976 | 0.878 |
| NCI-H3122 | 0.882 | 0.805 | 0.801 | 0.754 | 0.366 | 0.361 | 0.341 | 0.339 | 0.282 | 1.11 | 0.881 | 0.802 | 0.916 | 0.885 | 0.988 | 0.651 | 0.84 | 0.651 |
| NCI-H1563 | 0.891 | 0.851 | 0.944 | 0.911 | 0.728 | 0.649 | 0.662 | 0.701 | 0.659 |  |  |  |  |  |  |  |  |  |
| NCI-H358 | 0.38 | 0.334 | 0.391 | 0.314 | 0.369 | 0.291 | 0.282 | 0.406 | 0.325 | 0.794 | 0.882 | 0.67 | 0.697 | 0.626 | 0.422 | 0.335 | 0.265 | 0.248 |
| SK-LU-1 | 0.964 | 0.773 | 0.751 | 0.479 | 0.537 | 0.613 | 0.526 | 0.531 | 0.505 | 0.771 | 0.803 | 0.755 | 0.745 | 0.719 | 0.779 | 0.717 | 0.686 | 0.443 |
| NCI-H2347 | 0.795 | 0.706 | 0.574 | 0.436 | 0.316 | 0.449 | 0.433 | 0.424 | 0.33 | 0.574 | 0.753 | 0.461 | 0.593 | 0.591 | 0.521 | 0.467 | 0.36 | 0.283 |
| IA-LM | 0.395 | 0.182 | 0.111 | 0.108 |  |  |  |  |  | 0.673 | 1.01 | 0.8 | 0.958 | 1 | 0.728 | 0.648 | 0.366 | 0.198 |
| HCC-15 | 0.786 | 0.575 | 0.463 | 0.398 | 0.451 | 0.48 | 0.455 | 0.448 | 0.406 | 0.8 | 0.799 | 0.812 | 0.841 | 0.853 | 0.656 | 0.586 | 0.435 | 0.393 |
| PC-3 [JPC-3] | 0.45 | 0.4 | 0.415 | 0.45 | 0.503 | 0.51 | 0.487 | 0.468 | 0.513 | 0.879 | 1.12 | 0.929 | 0.915 | 0.675 | 1.02 | 0.663 | 0.748 | 0.734 |
| NCI-H1915 | 1.06 | 0.93 | 0.831 | 0.682 | 0.362 | 0.385 | 0.354 | 0.376 | 0.375 | 0.49 | 0.533 | 0.478 | 0.54 | 0.512 | 0.598 | 0.492 | 0.504 | 0.377 |
